Measured values taken from publication PMC6882135 (ACS Omega, 2019).

Tests used:
[1] = molecular target: T1, human HDAC11 (Homo sapiens, UniProt Q96DB2); assay: Continuous fluorescence HDAC11 activity assay with peptidic substrate 1; assay type: biochemical
T1 sequence (Q96DB2 1-347): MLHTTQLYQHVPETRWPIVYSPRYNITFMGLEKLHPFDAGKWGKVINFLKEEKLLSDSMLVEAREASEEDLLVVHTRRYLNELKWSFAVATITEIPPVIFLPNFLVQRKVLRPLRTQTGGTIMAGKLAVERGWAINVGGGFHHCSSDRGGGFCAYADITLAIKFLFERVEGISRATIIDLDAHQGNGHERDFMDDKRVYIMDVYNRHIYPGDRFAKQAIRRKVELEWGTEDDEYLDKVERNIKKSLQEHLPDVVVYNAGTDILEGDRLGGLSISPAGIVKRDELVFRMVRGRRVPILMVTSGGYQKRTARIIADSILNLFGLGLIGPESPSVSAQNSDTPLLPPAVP

[2] = molecular target: T1, human HDAC11; assay: Discontinuous fluorescence-based; assay type: biochemical

Row | IC50 [1] | IC50 [2] | Compound
1 | > 40 µM | > 40 µM | Nc1ccccc1NC(=O)c1ccc(CNc2nccc(-c3cccnc3)n2)cc1 [mocetinostat, N-(2-aminophenyl)-4-(4-pyridin-3-ylpyrimidin-2-ylamino)methylbenzamide]
2 |  | 4.81 ± 0.04 µM | C/C=C1\NC(=O)[C@H]2CSSCC/C=C/[C@H](CC(=O)N[C@H](C(C)C)C(=O)N2)OC(=O)[C@H](C(C)C)NC1=O [romidepsin]
3 | > 40 µM | > 40 µM | CCCC(CCC)C(=O)O [valproate]
